# Test results: patent US11129820B2, “Ferroportin-inhibitor salts” (Vifor (International) AG, priority 2017, dated 2021)
# Tests used:
# [1] = tested on: beta2-microglobulin deficient (b2m−/−) mice; test: Correction of hyperferremia in beta2-microglobulin deficient mice; assay type: in vivo, mouse; conditions: for Serum Iron Reduction (%): 60 mg/kg oral, 3 hours (##)
# Method: Female and male homozygous b2m−/− mice are supplied from Jackson Laboratories (B6.129P2-B2mtm1Unc/J, Stock Number: 002087) at age of 6 to 7 weeks and fed standard diet (Harlan Provimi Kliba 3436) ad libitum. Age and gender matched WT C57BL/6 mice are supplied by Charles River. To study the acute effects of ferroportin (Fpn) inhibitors in iron overload b2m−/− mice are treated with compounds or the corresponding amount of vehicle at a volume of 10 ml/kg body weight. Fpn inhibitor compounds are formulated in 0.5% methylcellulose/water or 20% cremophor EL/water and dosed p.o. in mice at 50 mg/kg body weight. WT controls received only vehicle. Three hours later, mice are pre-terminally anesthetized in isoflurane chambers and blood is collected by retro-orbital bleeding. Mice are sacrificed by cervical dislocation and spleens, livers and duodena are harvested and used for biomarker analysis. All experiments are performed in compliance with license approved by the responsible veterinarian authorities. Serum is isolated by centrifugation of blood into gel-containing microtainers (BD Biosciences) and serum iron is determined by the MULTIGENT Iron assay (Abbott Diagnostics, Cat. 6K95). Four to nine mice per group are used and one-way ANOVA with Bonferroni's multiple comparison test is applied to analyze the statistical differences between the experimental groups.
# Blood is collected 1 (#) or 3 (##) hours after oral administration of the indicated doses of Fpn inhibitors to beta2-microglobulin deficient mice and serum iron concentrations are measured. Relative reduction (%) of serum iron levels are shown, which were calculated by subtracting the average of serum iron values of animals dosed with the Fpn inhibitor from that of vehicle-treated animals. The difference in average serum iron values between vehicle and compound treated groups was then divided by the average of serum iron of the vehicle control group and listed as percentage. Values are listed separately for female (♀) and male (♂) animals, because a marked sex-dependent difference in efficacy was noted. Statistically significant (2-way ANOVA with Bonferroni post test) differences observed between compound-treated and vehicle-treated groups are indicated (*** p<0.001; ** p<0.01, p<0.05).
# ferroportin (Fpn) = target: T1, ferroportin (Fpn) (Mus musculus, UniProt Q9JHI9); test: Ferroportin Ubiquitination and Degradation (J774, immunoprecipitation, Western blot); assay type: cell-based; parameters: key: +: comparable to hepcidin; −: no effect; +/−: intermediate effect; conditions: J774 cells, ca. 10-fold IC50 concentration, visual inspection of Western blots
# T1 construct: endogenous in cells; host or cells: J774 mouse macrophage cell line (DSMZ, Cat. ACC170), induced with 200 uM Fe(III)-NTA
# T1 sequence (Q9JHI9 1-570): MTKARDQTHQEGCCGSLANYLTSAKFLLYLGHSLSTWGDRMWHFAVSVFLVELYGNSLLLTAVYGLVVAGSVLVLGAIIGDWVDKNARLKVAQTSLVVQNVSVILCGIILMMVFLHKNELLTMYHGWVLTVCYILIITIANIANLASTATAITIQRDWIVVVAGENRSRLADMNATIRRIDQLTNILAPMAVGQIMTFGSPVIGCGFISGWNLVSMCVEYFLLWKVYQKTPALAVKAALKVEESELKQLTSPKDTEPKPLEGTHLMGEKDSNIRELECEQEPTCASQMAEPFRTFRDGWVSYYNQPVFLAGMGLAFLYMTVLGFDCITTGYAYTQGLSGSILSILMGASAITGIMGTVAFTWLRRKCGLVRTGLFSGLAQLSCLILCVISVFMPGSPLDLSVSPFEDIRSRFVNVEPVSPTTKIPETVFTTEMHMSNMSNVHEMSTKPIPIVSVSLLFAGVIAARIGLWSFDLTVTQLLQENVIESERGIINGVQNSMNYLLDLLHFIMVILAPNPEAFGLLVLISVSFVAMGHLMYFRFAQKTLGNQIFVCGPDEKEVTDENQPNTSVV
# Method: Exposure of cells expressing ferroportin (Fpn) to hepcidin is known to trigger ubiquitination and subsequent internalization and degradation of Fpn (Qiao, 2012). The potential of Fpn inhibitors to induce Fpn ubiquitination and degradation is investigated with an immunoprecipitation assay using the J774 mouse macrophage cell line which expresses Fpn upon treatment with iron.
# Cells are incubated with synthetic human hepcidin (Bachem, Cat. H-5926) or Fpn inhibitor compounds for 10 min or 120 min. Cells are washed and lysed with ice-cold lysis buffer (Pierce, Life Technoligies, Cat. 87787) including 1×HALT protease inhibitor cocktail (Life technologies, Cat. 78429) and 10 mM iodoacetamide (Sigma, Cat. 16125) to stabilize ubiquitinated proteins. Immunoprecipitation is done using the Pierce Classic IP Kit (Life Technologies, Cat. 26146) following the manufacturer's protocol. Briefly, 2 mg protein in 1.25 ml IP lysis buffer is incubated by mixing for 1 h at 4° C. with control agarose beads to pre-clear the lysate and reduce nonspecific signal. Unbound lysate is then incubated overnight with 12 μg per reaction of the affinity purified anti-Fpn antibody F308 that was raised against a GST fusion protein of mouse Fpn amino acids 224-308. Immune complexes are captured by pipetting 14 μl settled Pierce Protein A/G Plus Agarose beads (Life Technologies, Cat. 20423) per reaction and the slurry is incubated for 1.5 h at 4° C. with gentle end-over-end mixing. The beads are washed and immune complexes are eluted directly with 75 μl SDS NuPAGE LDS sample buffer (Life Technologies, Cat. NP0007) containing DTT (Life Technologies, Cat. NP0009).
# After immunoprecipitation samples are analyzed by Western blotting using a rabbit anti-mouse MTP1 antiserum (Alpha Diagnostic International, Cat. MTP11-A) and a mouse anti-mono- and polyubiquitinylated conjugates monoclonal antibody (Enzo Lifesciences, Cat. BML-PW8810) for detection of ferroportin and ubiquitin, respectively. Mouse monoclonal anti-rabbit IgG light chain (Abcam, Cat. ab99697) and anti-mouse IgG H&L (Abcam, Cat. ab6789) HRP conjugates are used as secondary antibodies.
# Hbb th3/+ mice = test: Mouse model of β-thalassemia intermedia (Hbb th3/+ mice); assay type: in vivo; conditions: for Decrease in RDW by 20/60 mg/kg compound / Decrease in serum iron by 20/60 mg/kg compound: % change to vehicle; for Correction of anemia at day 20-48 by 20/60 mg/kg: hemoglobin difference to vehicle; for Decrease in serum iron by 20/60 mg/kg compound: dosed for 3 h
# Method: The efficacy of Fpn inhibitors is investigated using a mouse model of transfusion-independent β-thalassemia. Mice with heterozygous deletion of β 1 and β 2 globin genes (called Hbb th3/+ mice) develop transfusion-independent anemia, ineffective erythropoiesis, splenomegaly and secondary iron overload in spleen, liver and kidneys. […] Hbb th3/+ mice are dosed twice daily with either compound at 20 or 60 mg/kg or with methylcellulose (10 ml/kg, Sigma, Cat. 274429) as a vehicle. Between both doses mice have access to drinking water supplemented with 1 mM ^58Fe(II)-sulfate (Vifor Pharma, Batch No. ROR 3096) and 10 mM ascorbic acid (Sigma, Cat. 795437) for 6 h. The concentration of ^58Fe(II)-Sulfate supplied in the drinking water is adjusted to substitute for intake of standard rodent diet with iron content of 250 ppm. Water without ^58Fe(II)-Sulfate and ascorbic acid is provided during the remaining 18 h. Dosing of Fpn inhibitors or vehicle followed by exposure to iron-containing water is repeated for 20 to 46 days in individual experiments.
# Additional hematologic parameters are measured in terminal blood using automated blood cell analyzer.
# The inefficient erythropoiesis of Hbb th3/+ mice causes excessive proliferation of erythroid precursors in spleen, leading to splenomegaly.
# Elevated erythropoietin levels in Hbb th3/+ mice induce overexpression of erythroferrone, an erythroid regulator hormone known to suppress hepcidin (Kautz L. et al, Nat. Genet., 2014). […] Erythroferrone is produced by erythrocyte precursors proliferating massively in spleens of Hbb th3/+ mice as a consequence of extramedullar erythropoiesis.
# Increased iron demand due to inefficient erythropoiesis and chronically low hepcidin levels in patients with thalassemia causes organ iron loading and associated morbidities, such as hepatocellular carcinoma and heart failure (Rivella S. Haematologica, 2015). Hbb th3/+ mice absorb excessive amounts of iron as a consequence of inadequately low hepcidin levels relative to the high iron content in liver, spleen and kidney and increased ferroportin expression in duodenum (Gardenghi S., Blood, 2007).
# Additionally, reactive oxygen species (ROS) are detected in bone marrow cells using a fluorescent indicator, CM-H2DCFDA (Thermo Fisher Scientific, Cat. C6827).
# Data are expressed as difference to the vehicle control group for hemoglobin and as % change to the vehicle control group for all other parameter shown
# [2] = Approximate solubility of the starting compound in solvents and solvent mixtures; assay type: physicochemical; conditions: thermodynamic from solid
# Method: Approximate solubilities were determined by incremental addition of solvent to about 10 mg the compound. […] Due to the experimental error inherent in this method, the solubility values are intended to be regarded as rough estimates and are to be used solely for the design of crystallization experiments.
# Approximate solubilities were determined by incremental addition of solvent to about 10 mg of the compound. […] Due to the experimental error inherent in this method, the solubility values were regarded as rough estimates and were only used for the design of crystallization experiments.
# The approximate solubility of SP236-FB-P1 was determined in a number of different solvents and solvent mixtures to help guide the salt/co-crystal experiments.
# naïve WT C57BL/6 mice = test: Hypoferremia in naïve mice; assay type: in vivo, mouse; conditions: injection in WT naïve mice, maximal effect at 3-4 hours post treatment
# Method: Injection of synthetic hepcidin in wild-type (WT) naïve mice results in a reduction of serum iron levels (40-50% from the vehicle control) with a maximal effect at 3-4 hours post treatment (Rivera, 2005; FIG. 12A).
# Female C57BL/6 mice (Janvier, France) at age of 9 weeks are fed a standard diet (Harlan Provimi Kliba 3436) and treated per os (p.o.) with compounds or the corresponding amount of vehicle at a volume of 10 ml/kg body weight. Fpn inhibitors are formulated in 0.5% methylcellulose/water or 20% cremophor EL/water and dosed p.o. in mice at 10, 30 or 100 mg/kg body weight. Three hours later, mice are pre-terminally anesthetized in isoflurane chambers and blood is collected by retro-orbital bleeding. Mice are sacrificed by cervical dislocation and spleens, livers and duodena were harvested and used for biomarker analysis. All experiments are conducted in compliance with the license approved by the responsible veterinarian authorities. Serum is isolated by centrifugation of blood into gel-containing microtainers and serum iron is determined by the MULTIGENT Iron assay (Abbott Diagnostics, 6K95). Eight mice per group are used and one-way ANOVA with Bonferroni's multiple comparison test is performed to analyze the statistical differences between the experimental groups.
# Table 6 Efficacy of Fpn inhibitors tested in the naïve mouse hypoferremia model. Serum iron reduction induced by selected ferroportin inhibitors dosed p.o. in naïve WT C57BL/6 mice at 10, 30 and 100 mg/kg. Relative serum iron reduction at 3 h after dosing was calculated by subtracting the average of serum iron values of animals dosed with the Fpn inhibitor from that of vehicle-treated animals. The difference in average serum iron values between vehicle and compound treated groups was then divided by the average of serum iron of the vehicle control group and listed as percentage.
smiles,measurement,setting,value
O=C(NCc1ncccc1F)c1csc(CCNCCc2nc3ccccc3[nH]2)n1 [Example Compound No. 94],"Correction of elevated serum iron, in words","[1]; b2m−/− mice, 50 mg/kg p.o., 3 h",corrected the elevated serum iron to the levels observed in WT controls
same,Serum Iron Reduction (%),[1]; female ♀,47%
same,Serum Iron Reduction (%),[1]; male ♂,67%
O=C(NCc1ncccc1F)c1coc(CCNCc2nc3ccccc3[nH]2)n1 [Example Compound No. 126],Fpn Degradation (120 min.),ferroportin (Fpn),+
same,Fpn Ubiquitination (10 min.),ferroportin (Fpn),+/−
O=C(NCc1ncccc1F)c1coc(CCNCCc2nc3ccccc3[nH]2)n1 [Example Compound No. 127],Decrease in RDW by 20/60 mg/kg compound,Hbb th3/+ mice; 20 mg/kg twice daily for 20-46 days,19%
same,Correction of anemia at day 20-48 by 20/60 mg/kg,Hbb th3/+ mice; 20 mg/kg twice daily,12 g/L
same,Decrease in serum iron by 20/60 mg/kg compound,Hbb th3/+ mice; 20 mg/kg,68%
same,Decrease in RDW by 20/60 mg/kg compound,Hbb th3/+ mice; 60 mg/kg twice daily for 20-46 days,25%
same,Correction of anemia at day 20-48 by 20/60 mg/kg,Hbb th3/+ mice; 60 mg/kg twice daily,20 g/L
same,Decrease in serum iron by 20/60 mg/kg compound,Hbb th3/+ mice; 60 mg/kg,81%
O=C(NCc1ncccc1F)c1coc(CCNCCc2nc3ccccc3[nH]2)n1 [SP236-FB-P1],solubility,"[2]; aqueous with cosolvent or surfactant or cyclodextrin, 2-propanol-water 1:3",39 to 47 mg/mL
same,solubility,"[2]; aqueous with cosolvent or surfactant or cyclodextrin, Methanol-water 1:1",> 100 mg/mL
same,solubility,"[2]; organic solvent or mixture, 2-Propanol",80 to 120 mg/mL
same,solubility,"[2]; organic solvent or mixture, Acetonitrile",> 200 mg/mL
same,solubility,"[2]; organic solvent or mixture, DMSO",> 100 mg/mL
same,solubility,"[2]; organic solvent or mixture, Dioxane",> 100 mg/mL
same,solubility,"[2]; organic solvent or mixture, Ethanol",> 100 mg/mL
same,solubility,"[2]; organic solvent or mixture, Ethyl acetate",> 100 mg/mL
same,solubility,"[2]; organic solvent or mixture, Ethyl acetate-cyclohexane 3:1",5 to 7 mg/mL
same,solubility,"[2]; organic solvent or mixture, Heptane",< 1 mg/mL
same,solubility,"[2]; organic solvent or mixture, Methanol",> 200 mg/mL
same,solubility,"[2]; organic solvent or mixture, THF",> 200 mg/mL
same,solubility,"[2]; organic solvent or mixture, THF-heptane 3:1",> 200 mg/mL
same,solubility,[2]; Water,~15 mg/mL
"CC[C@H](C)[C@@H]1NC(=O)[C@@H](NC(=O)[C@@H](NC(=O)[C@@H]2CCCN2C(=O)[C@H](Cc2ccccc2)NC(=O)[C@H](Cc2c[nH]cn2)NC(=O)[C@@H](NC(=O)[C@@H](N)CC(=O)O)[C@@H](C)O)[C@@H](C)CC)CSSC[C@@H](C(=O)N[C@@H](CCCCN)C(=O)N[C@H](C(=O)O)[C@@H](C)O)NC(=O)[C@@H]2CSSC[C@@H]3NC(=O)[C@@H]4CSSC[C@H](NC(=O)[C@H](Cc5ccccc5)NC1=O)C(=O)N[C@@H](CSSC[C@H](NC(=O)[C@H](CCCCN)NC(=O)[C@H](CO)NC(=O)[C@H](CCCNC(=N)N)NC(=O)[C@H](Cc1c[nH]cn1)NC3=O)C(=O)NCC(=O)N[C@@H](CCSC)C(=O)N2)C(=O)NCC(=O)N4 [hepcidin, reference compound]",Fpn Degradation (120 min.),ferroportin (Fpn),+
same,Fpn Ubiquitination (10 min.),ferroportin (Fpn),+
same,Reduction of serum iron levels from the vehicle control,naïve WT C57BL/6 mice,40-50%
